# Assay results: US10350206B2, “Benzyl substituted indazoles as BUB1 inhibitors” (Bayer Pharma Aktiengesellschaft, priority 2014, dated 2019)
# Legend:
# [1] = tested on: Bub1 kinase (pre-induced phospho-histone 2A); test: H2A Abrogation-Assay (cell-based mechanistic assay, pre-treatment with Nocodazole); conditions: Nocodazole 1 μg/ml 16 h, then test compound 1 h; read-out: Biological Assay 4.2: H2A Abrogation IC50
# Procedure: Biological Assay 4.2: Abrogation-Assay
# Cell-Based Mechanistic Assay: Changes of Phosphorylation Status of Pre-Induced Phospho-Histone 2A by Inhibition of Kinase Activity of Bub1
# This assay measures the inhibition of histone 2A phosphorylation, which was induced by pre-treatment of the cells with Nocodazole, by a Bub1 kinase inhibitor. 25000 cells (cells were ordered from ATCC) were seeded in 96 well plate for 5 h at 37° C. Cells were treated with Nocodazole (1 μg/ml). After 16h varying concentrations (between 3 nM and 10 μM) of test compounds were added and the cells were incubated for another 1h. Cells were fixed (20 min, Fixing solution R&D), washed three times with PBS and blocked with Odyssey blocking buffer before incubating with the primary antibody against phosphorylated H2A (5 μg/ml ABIN482721) overnight at 2-8° C. After washing, secondary IRDye-labeled antibody mix with cell stains was added for 1h and washed again with PBS. Plates were scanned with LiCor Odyssey Infrared Imager CLx at 800 nm for P-H2A and at 700 nm for cell stains Draq5/Sapphire. The quotient of 800 nm and 700 nm for Nocodazole only treated cells was set as 100% and the quotient of 800 nm and 700 nm of untreated cells was set as 0%. […] The IC50 values were determined by means of a 4 parameter fit.
# (§1) Histone H2A is an immediate intracellular substrate of Bub1 kinase. Determination of the phosphorylation status of Histone H2A provides a direct measure of the intracellular activity of Bub1 kinase.
# [2] = molecular target: T1, catalytic domain of human Bub1 (amino acids 704-1085) (Homo sapiens, UniProt O43683); test: Bub1 kinase assay (TR-FRET); assay type: biochemical; conditions: 10 μM ATP, 60 min reaction, pH 7.5; read-out: Biological Assay 1: Bub1 kinase assay median IC50
# T1 construct: catalytic domain of human Bub1 (amino acids 704-1085); His6 (N); made in house; host or cells: Hi5 insect cells
# Procedure: To this end, 100-fold concentrated compound solutions (in DMSO) were previously prepared by serial dilution (1:3.4) of 2 mM stocks in a clear low volume 384-well source microtiter plate (Greiner Bio-One, Frickenhausen, Germany), from which 50 nL of compounds were transferred into a black low volume test microtiter plate from the same supplier. […] The resulting mixture (5 μL final volume) was incubated at 22° during 60 min., and the reaction was stopped by the addition of 5 μL of an aqueous EDTA-solution (50 mM EDTA, in 100 mM HEPES pH 7.5 and 0.2% (w/v) bovine serum albumin) which also contained the TR-FRET detection reagents (0.2 μM streptavidin-XL665 [Cisbio Bioassays, Codolet, France] and 1 nM anti-phosho-Serine antibody [Merck Millipore, cat. #35-001] and 0.4 nM LANCE EU-W1024 labeled anti-mouse IgG antibody [Perkin-Elmer, product no. AD0077, alternatively a Terbium-cryptate-labeled anti-mouse IgG antibody from Cisbio Bioassays can be used]). The stopped reaction mixture was further incubated 1 h at 22° C. in order to allow the formation of complexes between peptides and detection reagents. Subsequently, the amount of product was evaluated by measurement of the resonance energy transfer from the Eu-chelate-antibody complex recognizing the Phosphoserine residue to the streptavidin-XL665 bound to the biotin moiety of the peptide. […] IC50 values were calculated by fitting the normalized inhibition data to a 4-parameter logistic equation (Minimum, Maximum, IC50, Hill; Y=Max+(Min−Max)/(1+(X/IC50)Hill)).
# [3] = tested on: HeLa human cervical tumor cells; test: Proliferation assay (HeLa cell line); assay type: cell-based; conditions: 96 h, 4 days incubation, crystal violet, read-out: Biological Assay 2: Proliferation assay (HeLa cell line) median IC50
# Procedure: Human tumour cells were originally obtained from the American Type Culture Collection (ATCC), the Deutsche Sammlung von Mikroorganismen und Zellkulturen (DSMZ, German Collection of Microorganisms and Cell Cultures), or Epo GmbH Berlin. Cultivated HeLa human cervical tumor cells (DSMZ ACC-57) were plated at a density of 3000 cells/well in a 96-well multititer plate in 200 μL of growth medium supplemented 10% fetal calf serum. After 24 hours, the cells of one plate (zero-point plate) were stained with crystal violet (see below), while the medium of the other plates was supplemented with the test substances in various concentrations (0 μM, as well as in the range of 0.001-10 μM; the final concentration of the solvent dimethyl sulfoxide was adjusted to 0.1%) using a Hewlett-Packard HP D300 Digital Dispenser. The cells were incubated for 4 days in the presence of test substances. […] After three washing cycles of the fixed cells with water, the plates were dried at room temperature. The cells were stained by adding 100 μL/measuring point of a 0.1% crystal violet solution (pH 3.0). After three washing cycles of the stained cells with water, the plates were dried at room temperature. The dye was dissolved by adding 100 μL/measuring point of a 10% acetic acid solution. […] The change of cell number, in percent, was calculated by normalization of the measured values to the absorption values of the zero-point plate (=0%) and the absorption of the untreated (0 μm) cells (=100%). The IC50 values were determined by means of a 4 parameter fit.
# [4] = tested on: HeLa human cervical tumor cells; test: Proliferation Assay (HeLa+Paclitaxel); assay type: cell-based; conditions: 3 nM paclitaxel, test substance 92 hours; read-out: Biological Assay 3: Proliferation Assay (HeLa + Paclitaxel) IC50
# Procedure: Proliferation Assay (HeLa+Paclitaxel):
# Cultivated HeLa human cervical tumor cells (DSMZ ACC-57) were plated at a density of 3000 cells/well in a 96-well multititer plate in 200 μL of growth medium supplemented 10% fetal calf serum. After 24 hours, the cells of one plate (zero-point plate) were stained with crystal violet (see below). The medium of the other plates was supplemented with 3 nM of paclitaxel (Sigma-Aldrich) and the cells were incubated at 37° C. After 4 hours the test substances were added in various concentrations (0 μM, as well as in the range of 0.001-10 μM; the final concentration of the solvent dimethyl sulfoxide was adjusted to 0.1%) using a Hewlett-Packard HP D300 Digital Dispenser. The cells were incubated for another 92 hours at 37° C. in the presence of test substances. […] After three washing cycles of the fixed cells with water, the plates were dried at room temperature. The cells were stained by adding 100 μL/measuring point of a 0.1% crystal violet solution (pH 3.0). After three washing cycles of the stained cells with water, the plates were dried at room temperature. The dye was dissolved by adding 100 μL/measuring point of a 10% acetic acid solution. […] The change of cell number, in percent, was calculated by normalization of the measured values to the absorption values of the zero-point plate (=0%) and the 5 absorption of the untreated (0 μm) cells (=100%). The IC50 values were determined by means of a 4 parameter fit.
# [5] = tested on: Bub1 kinase (histone 2A phosphorylation); test: H2A Formation-Assay (cell-based mechanistic assay, co-treatment with Nocodazole); conditions: 16 h, Nocodazole 1 μg/ml together with test compound for 16 h; read-out: Biological Assay 4.1: H2A Formation IC50
# Procedure: Biological Assay 4.1: Formation-Assay
# Cell-Based Mechanistic Assay: Changes of Phosphorylation Status of Histone 2A by Inhibition of Kinase Activity of Bub1
# This assay determines the suppression of histone 2A phosphorylation by a Bub1 kinase inhibitor during co-treatment with Nocodazole. 25000 cells (cells were ordered from ATCC) were seeded in 96 well plate for 5 h at 37° C. Cells were treated with Nocodazole (1 μg/ml) and varying concentrations (between 3 nM and 10 μM) of test compounds for 16h. Cells were fixed (20 min, Fixing solution R&D), washed three times with PBS and blocked with Odyssey blocking buffer before incubating with the primary antibody against phosphorylated H2A (5 μg/ml ABIN482721) overnight at […]. After washing, secondary IRDye-labeled antibody mix with cell stains was added for 1h and washed again with PBS. Plates were scanned with LiCor Odyssey Infrared Imager CLx at 800 nm for P-H2A and at 700 nm for cell stains Draq5/Sapphire. The quotient of 800 nm and 700 nm for Nocodazole only treated cells was set as 100% and the quotient of 800 nm and 700 nm of untreated cells was set as 0%. […] The IC50 values were determined by means of a 4 parameter fit.
# as §1
# T1 sequence (O43683 704-1085): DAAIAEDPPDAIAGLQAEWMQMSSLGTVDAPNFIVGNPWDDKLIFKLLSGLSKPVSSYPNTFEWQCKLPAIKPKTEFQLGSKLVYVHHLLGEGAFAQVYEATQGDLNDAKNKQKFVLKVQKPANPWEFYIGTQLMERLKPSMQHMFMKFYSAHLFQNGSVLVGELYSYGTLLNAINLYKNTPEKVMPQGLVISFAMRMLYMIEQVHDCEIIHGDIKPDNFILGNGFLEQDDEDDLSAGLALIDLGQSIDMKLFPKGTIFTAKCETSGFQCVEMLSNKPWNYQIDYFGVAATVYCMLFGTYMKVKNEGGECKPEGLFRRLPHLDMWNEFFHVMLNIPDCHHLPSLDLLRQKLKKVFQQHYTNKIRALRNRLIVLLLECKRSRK
Compound,IC50 [1],IC50 [2],IC50 [3],IC50 [4],IC50 [5]
"COc1cnc(-c2nn(Cc3c(F)cc(OCCO)cc3F)c3ccccc23)nc1Nc1cc(NC(C)=O)ncc1C [Example 2-1-14, N-{4-[(2-{1-[2,6-difluoro-4-(2-hydroxyethoxy)benzyl]-1H-indazol-3-yl}-5-methoxypyrimidin-4-yl)amino]-5-methylpyridin-2-yl}acetamide]",11 nM,420 nM,1500 nM,1100 nM,39 nM
"COc1cnc(-c2nn(Cc3c(F)cc(OCCCO)cc3F)c3ccccc23)nc1Nc1cc(C)ncc1C [Example 2-3-1, 3-{4-[(3-{4-[(2,5-dimethylpyridin-4-yl)amino]-5-methoxypyrimidin-2-yl}-1 H-indazol-1-yl)methyl]-3,5-difluorophenoxy}propan-1-ol]",0.72 nM,15 nM,> 10000 nM,72 nM,38 nM
"COc1cnc(-c2nn(Cc3c(F)cc(OCCCO)cc3F)c3ccccc23)nc1Nc1ccnc(C)n1 [Example 2-3-3, 3-{3,5-difluoro-4-[(3-{5-methoxy-4-[(2-methylpyrimidin-4-yl)amino]pyrimidin-2-yl}-1H-indazol-1-yl)methyl]phenoxy}propan-1-ol]",310 nM,55 nM,> 10000 nM,200 nM,210 nM
"COc1cnc(-c2nn(Cc3c(F)cc(OCCO)cc3F)c3ccccc23)nc1Nc1ccnc(F)c1 [Example 2-1-11, 2-{3,5-difluoro-4-[(3-{4-[(2-fluoropyridin-4-yl)amino]-5-methoxypyrimidin-2-yl}-1H-indazol-1-yl)methyl]phenoxy}ethanol]",5.2 nM,19 nM,5100 nM,110 nM,4.9 nM
"COc1cnc(-c2nn(Cc3c(F)cc(OCCO)cc3F)c3ccccc23)nc1Nc1ccnc(NC(=O)C2CC2)c1 [Example 2-1-15, N-{4-[(2-{1-[2,6-difluoro-4-(2-hydroxyethoxy)benzyl]-1H-indazol-3-yl}-5-methoxy-pyrimidin-4-yl)amino]pyridin-2-yl}cyclopropanecarboxamide]",1.2 nM,9.8 nM,> 10000 nM,360 nM,24 nM
"COc1cnc(-c2nn(Cc3c(F)cc(OCCO)cc3F)c3ccccc23)nc1Nc1ccnc(NC(=O)NC2CC2)c1 [Example 2-1-16, 1-cyclopropyl-3-{4-[(2-{1-[2,6-difluoro-4-(2-hydroxyethoxy)benzyl]-1H-indazol-3-yl}-5-methoxypyrimidin-4-yl)amino]pyridin-2-yl}urea]",74 nM,17 nM,3100 nM,300 nM,87 nM

# Now from value to molecule:
IC50 [1],IC50 [2],IC50 [3],IC50 [4],IC50 [5],Compound
> 1000 nM,58 nM,3300 nM,69 nM,2 nM,"COc1cnc(-c2nn(Cc3c(F)cc(OC[C@H](C)CO)cc3F)c3ccccc23)nc1Nc1cc(C)ncc1C [Example 2-3-5, (2R)-3-{4-[(3-{4-[(2,5-dimethylpyridin-4-yl)amino]-5-methoxypyrimidin-2-yl}-1H-indazol-1-yl)methyl]-3,5-difluorophenoxy}-2-methylpropan-1-ol]"
> 1000 nM,17 nM,2600 nM,160 nM,> 1000 nM,"COc1cnc(-c2nn(Cc3c(F)cc(OCCCO)cc3F)c3ccccc23)nc1Nc1ccnc(C)c1 [Example 2-3-8, 3-{3,5-difluoro-4-[(3-{5-methoxy-4-[(2-methylpyridin-4-yl)amino]pyrimidin-2-yl}-1H-indazol-1-yl)methyl]phenoxy}propan-1-ol]"
5400 nM,6.2 nM,3200 nM,430 nM,200 nM,"COc1cnc(-c2nn(Cc3c(F)cc(OCCO)cc3F)c3ccccc23)nc1Nc1ccncc1 [Example 6-1-1, 2-[3,5-difluoro-4-({3-[5-methoxy-4-(pyridin-4-ylamino)pyrimidin-2-yl]-1H-indazol-1-yl}methyl)phenoxy]ethanol, reference compound]"
1.9 nM,43 nM,> 10000 nM,150 nM,2.4 nM,"COc1cnc(-c2nn(Cc3c(F)cc(OC[C@H](C)CO)cc3F)c3ccccc23)nc1Nc1ccnc(C)n1 [Example 2-3-4, (2R)-3-{3,5-difluoro-4-[(3-{5-methoxy-4-[(2-methylpyrimidin-4-yl)amino]pyrimidin-2-yl}-1H-indazol-1-yl)methyl]phenoxy}-2-methylpropan-1-ol]"
